Laboratory results taken from a flash point compilation (Sun et al. 2020).

First: CCCCCCC(C)c1ccccc1 (stereo not drawn) [(1-methylheptyl)benzene]
Second: CCCCCCCc1ccccc1 [heptylbenzene]
The flash point of the first is higher: 100 °C for the first, 95 °C for the second.

Compared with `CCCNCCO` [(2-hydroxyethyl)propylamine], `CCCCNCCCC` [dibutylamine] is lower in flash point: 78 °C for the first, 47 °C for the second.

Compared with `CCN(CC)c1ccccc1` [N,N-diethylaniline], `CN(C)c1ccccc1` [N,N-dimethylaniline] is lower in flash point: 88 °C for the first, 75 °C for the second.

Going from `CCN(C=O)CC` [N,N-diethylformamide] to `CCN(C)CC` [N-ethyl-N-methylethanamine], the flash point falls from 65 °C to -23 °C.

Going from `CC(C)N(C=O)C(C)C` [N,N-diisopropylformamide] to `CC(C)NC(C)C` [diisopropylamine], the flash point falls from 75 °C to -7 °C.

First: CN(C)CCCN [N,N-dimethyl-1,3-propanediamine]
Second: CCCCN [butylamine]
The flash point of the first is higher: 32 °C for the first, -7 °C for the second.

Going from `CC(=O)N(C)C` [N,N-dimethylacetamide] to `COC(C)=O` [methylacetate], the flash point falls from 66 °C to -13 °C.

First: CCCCNC(C)=O [N-butylacetamide]
Second: CCNC(C)=O [N-ethylacetamide]
The flash point of the first is higher: 115 °C for the first, 106 °C for the second.

First: CCCCNc1ccccc1 [N-butylaniline]
Second: CCCCc1ccccc1 [butylbenzene]
The flash point of the first is higher: 107 °C for the first, 50 °C for the second.

Going from `CCNC1CCCCC1` [N-ethylcyclohexanamine] to `CCC1CCCCC1` [ethylcyclohexane], the flash point falls from 45 °C to 18 °C.

Compared with `CN(CCO)CCO` [N-methyldiethanolamine], `OCCOCCO` [diethyleneglycol] is lower in flash point: 137 °C for the first, 124 °C for the second.

Going from `CC(C)(C)Nc1ccccc1` [N-tert-butylaniline] to `CC(C)c1ccccc1` [cumene], the flash point falls from 88 °C to 31 °C.

Going from `CC(=O)OC(C)=O` [aceticanhydride] to `CCOC(C)=O` [ethylacetate], the flash point falls from 49 °C to -4 °C.

First: C=CC=O [acrolein]
Second: C=CC(=O)O [acrylicacid]
The flash point of the first is lower: -19 °C for the first, 54 °C for the second.

First: C=CC#N [acrylonitrile]
Second: C=CCO [allylalcohol]
The flash point of the first is lower: -5 °C for the first, 22 °C for the second.

Compared with `C=CCC1CCCC1` [allylcyclopentane], `OCC1CCCC1` [cyclopentylmethanol] is higher in flash point: 12 °C for the first, 62 °C for the second.

Going from `C=CCOCC` [allylethylether] to `C=CCOCCC` [allylpropylether], the flash point rises from -20 °C to -5 °C.

Going from `C=CCSCC` [allylethylsulfide] to `C=CCSCC=C` [diallylsulfide], the flash point rises from 16 °C to 23 °C.

Going from `C=CCOC(=O)C(=C)C` [allylmethacrylate] to `C=CCOC(=O)CC` [allylpropanoate], the flash point falls from 37 °C to 25 °C.

Going from `OCc1ccccc1` [benzylalcohol] to `ICc1ccccc1` [benzyliodide], the flash point rises from 93 °C to 97 °C.

Going from `CCCC(=O)OCc1ccccc1` [benzylbutanoate] to `CCOCc1ccccc1` [benzylethylether], the flash point falls from 107 °C to 59 °C.

Going from `N#CCc1ccccc1` [benzylcyanide] to `SCc1ccccc1` [benzylmercaptan], the flash point falls from 101 °C to 70 °C.

First: C1CCC(C2CCCCC2)CC1 [bicyclohexyl]
Second: OC1CCCCCCC1 [cyclooctanol]
The flash point of the first is higher: 92 °C for the first, 88 °C for the second.

Going from `BrC1CCCC1` [bromocyclopentane] to `SC1CCCC1` [cyclopentanethiol], the flash point falls from 35 °C to 25 °C.

Compared with `CCCC(=O)OC(=O)CCC` [butanoicanhydride], `CCCCCCC(=O)OC(=O)CCCCCC` [heptanoicanhydride] is higher in flash point: 82 °C for the first, 130 °C for the second.

Going from `C=CC(=O)OCCCC` [butylacrylate] to `C=CC(=O)OCC` [ethylacrylate], the flash point falls from 37 °C to 8 °C.

Compared with `CCCCOC(=O)c1ccccc1` [butylbenzoate], `CCOC(=O)c1ccccc1C(=O)OCC` [diethylphthalate] is higher in flash point: 107 °C for the first, 160 °C for the second.

Compared with `CCCCOC(=O)CCC` [butylbutanoate], `CCCC(=O)OCCC(C)C` [isopentylbutanoate] is higher in flash point: 49 °C for the first, 59 °C for the second.

First: CCCCC1CCCCC1 [butylcyclohexane]
Second: CCC1CCCC1 [ethylcyclopentane]
The flash point of the first is higher: 48 °C for the first, -4 °C for the second.

First: CCCCOCC [butylethylether]
Second: CC/C=C\CCCC [cis-3-octene]
The flash point of the first is lower: -5 °C for the first, 14 °C for the second.

First: C=C(C)C(=O)OCCCC [butylmethacrylate]
Second: CCCCCCOC(C)=O [hexylacetate]
The flash point of the first is lower: 49 °C for the first, 55 °C for the second.

First: CSCCl [chloromethylmethylsulfide]
Second: CSSC [dimethyldisulfide]
The flash point of the first is higher: 17 °C for the first, 10 °C for the second.

Compared with `C[C@@H]1CCCC[C@@H]1C` [cis-1,2-dimethylcyclohexane], `C[C@@H]1CCC[C@@H]1C` [cis-1,2-dimethylcyclopentane] is lower in flash point: 12 °C for the first, -4 °C for the second.

First: C[C@@H]1CCC[C@H](C)C1 [cis-1,3-dimethylcyclohexane]
Second: CC(C)C1CCCC1 [isopropylcyclopentane]
The flash point of the first is lower: 6 °C for the first, 14 °C for the second.

First: C/C=C\CC [cis-2-pentene]
Second: CC/C=C\CC [cis-3-hexene]
The flash point of the first is lower: -46 °C for the first, -25 °C for the second.

First: C/C=C\C(C)C [cis-4-methyl-2-pentene]
Second: CC(C)N [isopropylamine]
The flash point of the first is lower: -33 °C for the first, -32 °C for the second.

Going from `O=C1CCC1` [cyclobutanone] to `O=C1CCCC1` [cyclopentanone], the flash point rises from 10 °C to 26 °C.

First: OC1CCCCCC1 [cycloheptanol]
Second: SC1CCCCC1 [cyclohexanethiol]
The flash point of the first is higher: 71 °C for the first, 41 °C for the second.

Going from `C=CC(=O)OC1CCCCC1` [cyclohexylacrylate] to `COC1CCCCC1` [cyclohexylmethylether], the flash point falls from 68 °C to 21 °C.

First: c1ccc(C2CCCCC2)cc1 [cyclohexylbenzene]
Second: Ic1ccccc1 [iodobenzene]
The flash point of the first is higher: 98 °C for the first, 74 °C for the second.

Going from `C1CCCCCCC1` [cyclooctane] to `C1CCCC1` [cyclopentane], the flash point falls from 28 °C to -37 °C.

Compared with `O=CC1CCCC1` [cyclopentanecarboxaldehyde], `NC1CCCC1` [cyclopentylamine] is lower in flash point: 28 °C for the first, 12 °C for the second.

Compared with `N#CC1CC1` [cyclopropanecarbonitrile], `CC(=O)C1CC1` [cyclopropylmethylketone] is lower in flash point: 32 °C for the first, 13 °C for the second.

First: CCCCCCCCCCOC=O [decylformate]
Second: CCCCCCOC=O [hexylformate]
The flash point of the first is higher: 100 °C for the first, 44 °C for the second.

Compared with `CCC(C)NC(C)CC` (stereo not drawn) [di-sec-butylamine], `CCC(C)OC(C)CC` (stereo not drawn) [di-sec-butylether] is lower in flash point: 24 °C for the first, 15 °C for the second.

Compared with `CC(C)(C)SSC(C)(C)C` [di-tert-butyldisulfide], `CSC` [dimethylsulfide] is lower in flash point: 67 °C for the first, -36 °C for the second.

First: CCCCSSCCCC [dibutyldisulfide]
Second: CCCCSCCCC [dibutylsulfide]
The flash point of the first is higher: 93 °C for the first, 60 °C for the second.

Compared with `CCNCC` [diethylamine], `CCOC(=O)CC` [ethylpropanoate] is higher in flash point: -23 °C for the first, 12 °C for the second.

First: CC(C)CCOCCC(C)C [diisopentylether]
Second: CC(=O)OCCC(C)C [isopentylacetate]
The flash point of the first is higher: 46 °C for the first, 36 °C for the second.

Compared with `COC(=O)OC` [dimethylcarbonate], `COC(=O)C(C)C` [methyl2-methylpropanoate] is lower in flash point: 14 °C for the first, 3 °C for the second.

First: COC(=O)c1ccccc1C(=O)OC [dimethylphthalate]
Second: CC(C)CCc1ccccc1 [isopentylbenzene]
The flash point of the first is higher: 150 °C for the first, 62 °C for the second.

First: c1ccc(Oc2ccccc2)cc1 [diphenylether]
Second: Cc1cccc(O)c1 [m-cresol]
The flash point of the first is higher: 115 °C for the first, 86 °C for the second.

Compared with `CCCSSCCC` [dipropyldisulfide], `CCCSSCC` [ethylpropyldisulfide] is lower in flash point: 66 °C for the first, 57 °C for the second.

Going from `CCCCCCCCCCCCOC(C)=O` [dodecylacetate] to `CCCCCCC=O` [heptanal], the flash point falls from 120 °C to 40 °C.

Compared with `c1ccoc1` [furan], `Cc1cccc(C)c1` [m-xylene] is higher in flash point: -36 °C for the first, 25 °C for the second.

First: CCC(=O)OCc1ccco1 [furfurylpropanoate]
Second: CCCC(=O)OCC(C)C [isobutylbutanoate]
The flash point of the first is higher: 82 °C for the first, 46 °C for the second.

First: CCCCCCC#N [heptanenitrile]
Second: CCCCCC#N [hexanenitrile]
The flash point of the first is higher: 58 °C for the first, 47 °C for the second.

Compared with `CCCCCC=O` [hexanal], `CC(C)CCOC=O` [isopentylformate] is lower in flash point: 25 °C for the first, 22 °C for the second.

Compared with `IC1CCCC1` [iodocyclopentane], `CC(C)C1CCCCC1` [isopropylcyclohexane] is lower in flash point: 52 °C for the first, 35 °C for the second.

Compared with `CCI` [iodoethane], `CCCC(=O)OC(C)C` [isopropylbutanoate] is higher in flash point: -5 °C for the first, 24 °C for the second.

Compared with `CC(C)COC(=O)C(C)C` [isobutyl2-methylpropanoate], `CC(=O)OCC(C)C` [isobutylacetate] is lower in flash point: 38 °C for the first, 18 °C for the second.

First: C=C(C)C(=O)OCC(C)C [isobutylmethacrylate]
Second: COCC(C)C [isobutylmethylether]
The flash point of the first is higher: 41 °C for the first, -29 °C for the second.

First: C=COCC(C)C [isobutylvinylether]
Second: CC(C)OC=O [isopropylformate]
The flash point of the first is higher: -9 °C for the first, -14 °C for the second.

Going from `C=CC(=C)C` [isoprene] to `CCCc1cccc(C)c1` [m-propyltoluene], the flash point rises from -48 °C to 52 °C.
